The values that follow come from patent US20080112954A1, “Method for treating chronic pain” (Parker College of Chiropractic, priority 2006, published 2008).

The subject of one test is naïve rats. The test can be described thus: Thermal sensitivity of naïve rats after intrathecal EphB receptor activators. It is filed as in vivo, rat. The settings on record: prior injection of 20 μg.
Test [1] relates to synapses between C-fibers and DH neurons. The test can be described thus: LTP of C-fiber evoked field potentials in spinal dorsal horn in vivo. Also on record: species or system rat. The settings on record: for LTP produced by 4 high-frequency trains of nerve shock: naïve animals. As for the experimental part: Under anesthesia, a cannula was inserted into the trachea to allow artificial ventilation and another cannula containing heparin (0.03%) saline was inserted into the left carotid artery to monitor the blood pressure. The rat was placed in a stereotaxic frame, then was paralyzed by an intravenous injection of pancuronium bromide (4 mg/kg) and artificially ventilated with air at a tidal volume of 15 ml/kg. Adequate anesthesia was confirmed intermittently during neuromuscular blockade in terms of the following two criteria: (1) the pupils were constricted; (2) the blood pressure remained stable during noxious stimulation. Core body temperature was monitored through a thermister probe inserted into the rectum and maintained at 37.5±0.5° C. by means of a feedback-controlled heating pad under the ventral surface of the abdomen. In each experiment phosphate-buffered saline (PBS) was intermittently administered via a jugular vein cannula to maintain hydroelectrolyte balance. A laminectomy was performed to expose the lumbar spinal cord. The dura mater was then removed the exposed cord was immediately covered with warm agar (2% in saline). After the agar hardened, a small hole was made above the recording site for application of drug or vehicle. At the end of each experiment, the animals were killed by an overdose of intravenous pentobarbital (200 mg/kg).
Long-term potentiation (LTP) tests were performed on naïve rats. The protocol for the electrophysiological recordings of C-fiber evoked field potentials was similar to that described previously (Liu and Sandkuhler, 1998). The recordings were made at depths of 200-500 μm from the surface of the spinal cord between L4-L5 with glass capillary microelectrodes (DC resistances 3-5 MΩ filled with 2 M NaCl). The sciatic nerve was stimulated by a bipolar platinum hook electrode. […] Examples of the C-fiber-evoked field potentials given in each figure were recorded before (a) and after (b) tetanic stimulation (indicated by the arrow therein) or ephrinB1-Fc. […]

Turning to `C[C@]12N[C@H](Cc3ccccc31)c1ccccc12` [MK-801, dizocilpine], the “thermal hypersensitivity induced by injection of ephrinB1-Fc or ephrinB2-Fc” value with naïve rats is reported as “prevented”. The “LTP produced by 4 high-frequency trains of nerve shock” value in test [1] (post-treatment) is “not interrupted”; in test [1] (topical pre-treatment), “blocked”. For the same compound, the “LTP induced by the combination of ephrinB1-Fc and 2 tetanic trains” value in test [1] (pre-treatment, n=5) was “blocked”.
